Data taken from patent US20030069169A1, “Co-administration of melanocortin receptor agonist and phosphodiesterase inhibitor for treatment of cyclic-AMP associated disorders” (priority 2001, published 2003).

Experiments:
human MC-1R = target: T1, human MC-1R (Homo sapiens, UniProt Q01726); test: MC-1R cAMP SPA assay in HBL cells; assay type: cell-based; settings: read-out: potency as agonist of the MC-1R
T1 construct: HBL cells, a human melanoma cell line licensed from Prof; G. Ghanem; endogenous in cells; host or cells: HBL human melanoma cells
T1 sequence (Q01726 whole entry): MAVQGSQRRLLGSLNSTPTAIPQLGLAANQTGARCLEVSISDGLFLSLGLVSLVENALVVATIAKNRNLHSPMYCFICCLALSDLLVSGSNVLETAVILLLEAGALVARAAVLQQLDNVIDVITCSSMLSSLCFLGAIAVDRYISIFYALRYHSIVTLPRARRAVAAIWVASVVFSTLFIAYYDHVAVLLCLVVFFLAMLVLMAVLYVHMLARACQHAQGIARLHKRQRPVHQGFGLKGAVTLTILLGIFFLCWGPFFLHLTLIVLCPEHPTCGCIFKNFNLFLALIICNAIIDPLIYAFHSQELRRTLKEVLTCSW
Description: HBL cells, a human melanoma cell line licensed from Prof. G. Ghanem (Lab. of Oncology & Exp. Surgery, Free University of Brussels, Brussels, Belgium) were used as a source of the human MC-1R. cAMP was measured using the cAMP SPA Direct Screening Assay System from Amersham (RPA 559). 20,000 HBL cells were plated into each well of a half-area 96 well white plate and were used between 16-48 hours after plating. Cells were incubated at 37° C. for 15 minutes in 25 μM IBMX to inhibit phosphodieterase activity. As per kit instructions, Assay Buffer Concentrate was diluted 1 to 50 with dH2O to prepare Assay Buffer (50 mM acetate buffer containing 0.01% sodium azide). Vials containing rabbit anti-succinyl cAMP serum and the tracer, adenosine 3′,5′-cyclic phosphoric acid 2′-0-succinyl-3-[^125I] iodotyrosine methyl ester, were resuspended with 7.5 ml Assay Buffer. SPA anti-rabbit reagent (donkey anti-rabbit IgG coupled to SPA PVT beads) was resuspended with 15 ml Assay Buffer. All reagents were stored at 4° C. after reconstitution. Melanocortin ligands or compounds were prepared in DMSO and added to the IBMX-treated cells as 100×concentrated stocks. […] Plates were subsequently counted for 6 minutes per sample in a TopCount scintillation reader with background subtraction. Data was analyzed in relation to a cAMP standard curve.

[1] = test system: LPS-induced TNF-α production; test: endotoxin-induced TNF-α accumulation model in Balb/C mice; assay type: in vivo; settings: for % Inhibition of LPS-induced TNF-α levels: balb/C mice, rolipram 10 ug/kg, NDP-MSH 2.5 mg/kg, alone or combined, co-administered with LPS by tail vein injection
Description: Melanocortin receptor agonists and cAMP-PDE inhibitors were evaluated for anti-inflammatory activity in vivo by using an endotoxin-induced TNF-α accumulation model in Balb/C mice. Compounds were administered either by s.c injection or co-injected with endotoxin in the tail vein. Both rolipram and melanocortin agonists inhibit endotoxin-induced TNF-α accumulation in this model.
FIG. 1 reports the results of administration of the compound of Example 11, below, in this model. Example 11 was administered by s.c. injection to five mice for each dose of 1.2 μmol/kg, 3.7 μmol/kg, 11.1 μmol/kg, 33.3 μmol/kg, and 100 μmol/kg. The compound was administered 1 hour prior to the LPS-induced challenge.
A second experiment was conducted in which the effect of the cAMP-PDE inhibitor rolipram and the melanocortin receptor agonist NDP-MSH was determined.
The four bar graphs of FIG. 2 reflect the inhibition in LPS-induced TNF-α a production in balb/C mice upon administration of (1) no agent (control); (2) 10 ug/kg ROLIPRAM (3) 2.5 mg/kg NDP-MSH and (4) 10 ug/kg ROLIPRAM in combination with 2.5 mg/kg NDP-MSH. Compounds were co-administered with LPS by tail vein injection. […] Administration of 2.5 mg/kg NDP-MSH inhibited TNF-α levels by 64%.

Row | Compound | EC50 (human MC-1R) | inhibition of endotoxin-induced TNF-α accumulation (in words) ([1]; Balb/C mice, s.c. injection or co-injected with endotoxin in the tail vein) | % Inhibition of LPS-induced TNF-α levels [1]
1 | CCCC(=O)C1(c2ccccc2)CCN(C(=O)[C@@H](Cc2ccc(OC)cc2)NC(=O)[C@@H](N)Cc2cncn2C)CC1 [Example 11] | ~20 nM |  | 
2 | COc1ccc(C2CNC(=O)C2)cc1OC1CCCC1 (stereo not shown) [Rolipram] |  | inhibit | 47%
3 | NDP-MSH |  |  | 64%
